Reference: the supplement of paper PMC13380429
± gives the standard deviation of the averaged measurements.

Assays:
Details in all cases: 72 h
Caco-2 [1] = experiment: cell viability relative to DMSO; higher = less toxic
Calu-3 [2] = experiment: as above
HepG2 [3] = experiment: as above
U2OS [4] = experiment: as above
Vero E6 [5] = experiment: as above
Caco-2 [6] = experiment: relative viability EC50 (midpoint between 100% and the lowest measured viability); higher = less toxic
Calu-3 [7] = experiment: as above
HepG2 [8] = experiment: as above
U2OS [9] = experiment: as above
Vero E6 [10] = experiment: as above
Caco-2 [11] = experiment: drug sensitivity score (DSS) for viability; higher = more toxic; extreme values may be limits of the assay
Calu-3 [12] = experiment: as above
HepG2 [13] = experiment: as above
U2OS [14] = experiment: as above
Vero E6 [15] = experiment: as above

CCOC(=O)C1=C(C)NC(C)=C(C(=O)OC)C1c1cccc(Cl)c1Cl (stereo not given) [felodipine]
cell viability (Caco-2 [1]; 1 nM): 101%
cell viability (Caco-2 [1]; 10 nM): 102%
cell viability (Caco-2 [1]; 100 nM): 104%
cell viability (Caco-2 [1]; 1000 nM): 91.8%
cell viability (Caco-2 [1]; 10000 nM): 99%
cell viability (Calu-3 [2]; 1 nM): 89.8%
cell viability (Calu-3 [2]; 10 nM): 101%
cell viability (Calu-3 [2]; 100 nM): 111%
cell viability (Calu-3 [2]; 1000 nM): 98.2%
cell viability (Calu-3 [2]; 10000 nM): 102%
cell viability (HepG2 [3]; 1 nM): 105%
cell viability (HepG2 [3]; 10 nM): 107%
cell viability (HepG2 [3]; 100 nM): 99.5%
cell viability (HepG2 [3]; 1000 nM): 99.2%
cell viability (HepG2 [3]; 10000 nM): 96.9%
cell viability (U2OS [4]; 1 nM): 106%
cell viability (U2OS [4]; 10 nM): 96.7%
cell viability (U2OS [4]; 100 nM): 99.7%
cell viability (U2OS [4]; 1000 nM): 97.4%
cell viability (U2OS [4]; 10000 nM): 100%
cell viability (Vero E6 [5]; 1 nM): 99.2%
cell viability (Vero E6 [5]; 10 nM): 103%
cell viability (Vero E6 [5]; 100 nM): 101%
cell viability (Vero E6 [5]; 1000 nM): 103%
cell viability (Vero E6 [5]; 10000 nM): 94.7%
relative viability EC50 (Caco-2 [6]): > 10 µM
relative viability EC50 (Calu-3 [7]): > 10 µM
relative viability EC50 (HepG2 [8]): > 10 µM
relative viability EC50 (U2OS [9]): > 10 µM
relative viability EC50 (Vero E6 [10]): > 10 µM
drug sensitivity score (Caco-2 [11]): 0
drug sensitivity score (Calu-3 [12]): 0
drug sensitivity score (HepG2 [13]): 0
drug sensitivity score (U2OS [14]): 0
drug sensitivity score (Vero E6 [15]): 0

CN1CCC[C@@H]1CCSc1ccc(O)cc1 [SIB-1553A]
cell viability (Caco-2 [1]; 1 nM): 94.4%
cell viability (Caco-2 [1]; 10 nM): 100%
cell viability (Caco-2 [1]; 100 nM): 99.7%
cell viability (Caco-2 [1]; 1000 nM): 102%
cell viability (Caco-2 [1]; 10000 nM): 105%
cell viability (Calu-3 [2]; 1 nM): 98.7%
cell viability (Calu-3 [2]; 10 nM): 103%
cell viability (Calu-3 [2]; 100 nM): 98.6%
cell viability (Calu-3 [2]; 1000 nM): 91.6%
cell viability (Calu-3 [2]; 10000 nM): 99.3%
cell viability (HepG2 [3]; 1 nM): 95%
cell viability (HepG2 [3]; 10 nM): 88.9%
cell viability (HepG2 [3]; 100 nM): 95.4%
cell viability (HepG2 [3]; 1000 nM): 88.1%
cell viability (HepG2 [3]; 10000 nM): 111%
cell viability (U2OS [4]; 1 nM): 97.9%
cell viability (U2OS [4]; 10 nM): 101%
cell viability (U2OS [4]; 100 nM): 97.1%
cell viability (U2OS [4]; 1000 nM): 101%
cell viability (U2OS [4]; 10000 nM): 106%
cell viability (Vero E6 [5]; 1 nM): 106%
cell viability (Vero E6 [5]; 10 nM): 95.7%
cell viability (Vero E6 [5]; 100 nM): 97.5%
cell viability (Vero E6 [5]; 1000 nM): 96%
cell viability (Vero E6 [5]; 10000 nM): 104%
relative viability EC50 (Caco-2 [6]): > 10 µM
relative viability EC50 (Calu-3 [7]): > 10 µM
relative viability EC50 (HepG2 [8]): > 10 µM
relative viability EC50 (U2OS [9]): > 10 µM
relative viability EC50 (Vero E6 [10]): > 10 µM
drug sensitivity score (Caco-2 [11]): 0
drug sensitivity score (Calu-3 [12]): 0
drug sensitivity score (HepG2 [13]): 0
drug sensitivity score (U2OS [14]): 0
drug sensitivity score (Vero E6 [15]): 0

Nc1ncnc2c1ncn2[C@@H]1O[C@H](CO)[C@@H](O)[C@H]1O [adenosine]
cell viability (Caco-2 [1]; 1 nM): 103 ± 2.4%
cell viability (Caco-2 [1]; 10 nM): 100 ± 4.7%
cell viability (Caco-2 [1]; 100 nM): 97.9 ± 1.8%
cell viability (Caco-2 [1]; 1000 nM): 94.5 ± 1.1%
cell viability (Caco-2 [1]; 10000 nM): 95.2 ± 8.6%
cell viability (Calu-3 [2]; 1 nM): 107%
cell viability (Calu-3 [2]; 10 nM): 88.4%
cell viability (Calu-3 [2]; 100 nM): 96.3%
cell viability (Calu-3 [2]; 1000 nM): 96.1%
cell viability (Calu-3 [2]; 10000 nM): 95.2%
cell viability (HepG2 [3]; 1 nM): 98.05 ± 0.21%
cell viability (HepG2 [3]; 10 nM): 102 ± 6.9%
cell viability (HepG2 [3]; 100 nM): 96.7 ± 6.6%
cell viability (HepG2 [3]; 1000 nM): 110 ± 9.2%
cell viability (HepG2 [3]; 10000 nM): 88 ± 9.1%
cell viability (U2OS [4]; 1 nM): 102 ± 1.8%
cell viability (U2OS [4]; 10 nM): 98 ± 3%
cell viability (U2OS [4]; 100 nM): 98.2 ± 3.2%
cell viability (U2OS [4]; 1000 nM): 98.5 ± 2.2%
cell viability (U2OS [4]; 10000 nM): 104 ± 5.9%
cell viability (Vero E6 [5]; 1 nM): 102.5 ± 0.99%
cell viability (Vero E6 [5]; 10 nM): 102 ± 2.3%
cell viability (Vero E6 [5]; 100 nM): 97.3 ± 3.5%
cell viability (Vero E6 [5]; 1000 nM): 103.5 ± 0.35%
cell viability (Vero E6 [5]; 10000 nM): 99.95 ± 0.35%
relative viability EC50 (Caco-2 [6]): > 10 µM
relative viability EC50 (Calu-3 [7]): > 10 µM
relative viability EC50 (HepG2 [8]): > 10 µM
relative viability EC50 (U2OS [9]): > 10 µM
relative viability EC50 (Vero E6 [10]): > 10 µM
drug sensitivity score (Caco-2 [11]): 0
drug sensitivity score (Calu-3 [12]): 0
drug sensitivity score (HepG2 [13]): 0.1 ± 0.14
drug sensitivity score (U2OS [14]): 0
drug sensitivity score (Vero E6 [15]): 0
